This note sets out measurements from PMC4220862 (Inorganic Chemistry, 2014).

In assay [1] the target is T1, amyloid β peptide (Aβ40 fibrils) (Homo sapiens, UniProt P05067). Description: direct fluorescence titration of Aβ[…] fibrils, one-site fit. The format is binding.
The target in assay [2] is T1, amyloid β peptide (Aβ40 fibrils). Description: ThT fluorescence competition assay with Aβ[…] fibrils. The class given is binding.

T1 sequence (P05067 672-711): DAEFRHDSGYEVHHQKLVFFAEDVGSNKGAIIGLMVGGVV

For orientation: Kd means the concentration at which binding is half-saturated. Higher therefore signals weaker binding. In assay [1], `CCN(CC)c1ccc(-c2nc3ccccc3s2)c(O)c1` [L1, 2-[2-hydroxy-4-(diethylamino)phenyl]benzothiazole] registered a dissociation constant (Kd) of 4700 ± 300 nM.
One may read the Ki as a dissociation constant, usually derived from enzyme kinetics or from competition with a known ligand. Higher therefore signals a looser hold on the target. For `COc1cccc(-c2nc3ccccc3s2)c1O` [L2, 2-(2-hydroxy-3-methoxyphenyl)benzothiazole], in assay [2], the affinity, expressed as Ki, was 15 ± 10 nM.
